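Growth conditions: 96-well plates. Treatment: test compound, 48 hours, 5 concentrations. Analysis: linear interpolation between bracketing concentrations; unreached endpoints set to highest concentration. TGI: total growth inhibition.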
Experiments:
Assay in all cases: DTP human tumour cell line panel, 48 h
CAKI-1 renal = tested on: CAKI-1 renal
SK-MEL-2 melanoma = tested on: SK-MEL-2 melanoma
PC-3 prostate = tested on: PC-3 prostate
A549 NSCLC = tested on: A549 NSCLC
HS 578T breast = tested on: HS 578T breast
SK-MEL-28 melanoma = tested on: SK-MEL-28 melanoma
NCI-H226 lung = tested on: NCI-H226 lung
HT29 colon = tested on: HT29 colon
COLO 205 colon = tested on: COLO 205 colon
SNB-75 CNS = tested on: SNB-75 CNS
SW-620 colon = tested on: SW-620 colon
SR leukemia = tested on: SR leukemia
MCF7 breast = tested on: MCF7 breast
SF-295 CNS = tested on: SF-295 CNS
OVCAR-8 ovarian = tested on: OVCAR-8 ovarian
BT-549 breast = tested on: BT-549 breast
M14 melanoma = tested on: M14 melanoma
UACC-62 melanoma = tested on: UACC-62 melanoma
HCT-116 colon = tested on: HCT-116 colon
ACHN renal = tested on: ACHN renal
MDA-N = tested on: MDA-N
UO-31 renal = tested on: UO-31 renal
SN12C renal = tested on: SN12C renal
NCI/ADR-RES ovarian = tested on: NCI/ADR-RES ovarian
HOP-92 NSCLC = tested on: HOP-92 NSCLC
SNB-19 CNS = tested on: SNB-19 CNS
DU-145 prostate = tested on: DU-145 prostate
OVCAR-5 ovarian = tested on: OVCAR-5 ovarian
RXF 393 renal = tested on: RXF 393 renal
HCC-2998 colon = tested on: HCC-2998 colon
KM12 colon = tested on: KM12 colon
T-47D breast = tested on: T-47D breast
SF-268 CNS = tested on: SF-268 CNS
OVCAR-3 ovarian = tested on: OVCAR-3 ovarian
NCI-H522 lung = tested on: NCI-H522 lung
TK-10 renal = tested on: TK-10 renal
MALME-3M melanoma = tested on: MALME-3M melanoma
SK-OV-3 ovarian = tested on: SK-OV-3 ovarian
UACC-257 melanoma = tested on: UACC-257 melanoma
SK-MEL-5 melanoma = tested on: SK-MEL-5 melanoma
OVCAR-4 ovarian = tested on: OVCAR-4 ovarian
MDA-MB-435 = tested on: MDA-MB-435
MOLT-4 leukemia = tested on: MOLT-4 leukemia
NCI-H460 lung = tested on: NCI-H460 lung
NCI-H23 lung = tested on: NCI-H23 lung
EKVX NSCLC = tested on: EKVX NSCLC
U251 CNS = tested on: U251 CNS
RPMI-8226 leukemia = tested on: RPMI-8226 leukemia
LOX IMVI melanoma = tested on: LOX IMVI melanoma
CCRF-CEM leukemia = tested on: CCRF-CEM leukemia
IGROV1 ovarian = tested on: IGROV1 ovarian
K-562 leukemia = tested on: K-562 leukemia
SF-539 CNS = tested on: SF-539 CNS

## Cc1cc(C)c(S(=O)(=O)N(CCCCN)OCCCN)c(C)c1
CAKI-1 renal
  TGI: 31.3 µM
SK-MEL-2 melanoma
  TGI: 30.9 µM
PC-3 prostate
  TGI: 27.6 µM
A549 NSCLC
  TGI: 36.1 µM
HS 578T breast
  TGI: 34.4 µM
SK-MEL-28 melanoma
  TGI: 32.4 µM
NCI-H226 lung
  TGI: 31.8 µM
HT29 colon
  TGI: 27.8 µM
COLO 205 colon
  TGI: 22.7 µM
SNB-75 CNS
  TGI: 27.5 µM
SW-620 colon
  TGI: 32.6 µM
SR leukemia
  TGI: 38 µM
MCF7 breast
  TGI: 35.3 µM
SF-295 CNS
  TGI: 37 µM
OVCAR-8 ovarian
  TGI: 32.8 µM
BT-549 breast
  TGI: 33.8 µM
M14 melanoma
  TGI: 35.9 µM
UACC-62 melanoma
  TGI: 30.7 µM
HCT-116 colon
  TGI: 30.9 µM
ACHN renal
  TGI: 37 µM
MDA-N
  TGI: 31.1 µM
UO-31 renal
  TGI: 31.8 µM
SN12C renal
  TGI: 34.4 µM
NCI/ADR-RES ovarian
  TGI: 36.5 µM
HOP-92 NSCLC
  TGI: 34.5 µM
SNB-19 CNS
  TGI: 34.5 µM
DU-145 prostate
  TGI: 29.4 µM
OVCAR-5 ovarian
  TGI: 35.6 µM
RXF 393 renal
  TGI: 31.6 µM
HCC-2998 colon
  TGI: 5.59 µM
KM12 colon
  TGI: 35 µM
T-47D breast
  TGI: 33.4 µM
SF-268 CNS
  TGI: 34.3 µM
OVCAR-3 ovarian
  TGI: 36.3 µM
NCI-H522 lung
  TGI: 29.9 µM
TK-10 renal
  TGI: 32 µM
MALME-3M melanoma
  TGI: 36.3 µM
SK-OV-3 ovarian
  TGI: 31.8 µM
UACC-257 melanoma
  TGI: 30.2 µM
SK-MEL-5 melanoma
  TGI: 39.9 µM
OVCAR-4 ovarian
  TGI: 32.3 µM
MDA-MB-435
  TGI: 30.7 µM
MOLT-4 leukemia
  TGI: 28.6 µM
NCI-H460 lung
  TGI: 33.4 µM
NCI-H23 lung
  TGI: 43.2 µM
EKVX NSCLC
  TGI: 31 µM
U251 CNS
  TGI: 28.8 µM
RPMI-8226 leukemia
  TGI: 26 µM
LOX IMVI melanoma
  TGI: 31.9 µM
CCRF-CEM leukemia
  TGI: 38.3 µM
IGROV1 ovarian
  TGI: 29.4 µM
K-562 leukemia
  TGI: 44.4 µM
SF-539 CNS
  TGI: 41.6 µM

From PubChem BioAssay (NCI)
